Assay results as given in US9834542B2, “LXR modulators” (BRISTOL-MYERS SQUIBB COMPANY, priority 2013, dated 2017).

Biological target: T1, LXRβ (Homo sapiens, UniProt P55055)
T1 construct: Co-transfection expression plasmids, comprising full-length LXRα (pCMX-h LXRα[…] or LXRβ (pCMX-hLXRβ)); expressed in transfected cells; host or cells: CV-1 African Green Monkey Kidney Cells
T1 sequence (P55055 1-460): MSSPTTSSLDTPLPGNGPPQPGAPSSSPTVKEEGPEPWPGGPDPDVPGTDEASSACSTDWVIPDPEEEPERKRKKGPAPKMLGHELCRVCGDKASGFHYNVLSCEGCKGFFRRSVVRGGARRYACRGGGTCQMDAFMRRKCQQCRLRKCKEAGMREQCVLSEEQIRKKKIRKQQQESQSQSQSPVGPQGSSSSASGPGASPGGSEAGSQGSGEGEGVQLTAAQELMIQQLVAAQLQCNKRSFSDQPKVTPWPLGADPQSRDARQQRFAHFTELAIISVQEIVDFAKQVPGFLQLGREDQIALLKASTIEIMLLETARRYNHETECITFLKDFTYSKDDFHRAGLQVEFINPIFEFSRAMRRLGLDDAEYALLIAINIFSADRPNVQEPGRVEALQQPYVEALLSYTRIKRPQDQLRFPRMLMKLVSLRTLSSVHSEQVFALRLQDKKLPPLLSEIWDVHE
T1 sequence (P19793 1-462 partner): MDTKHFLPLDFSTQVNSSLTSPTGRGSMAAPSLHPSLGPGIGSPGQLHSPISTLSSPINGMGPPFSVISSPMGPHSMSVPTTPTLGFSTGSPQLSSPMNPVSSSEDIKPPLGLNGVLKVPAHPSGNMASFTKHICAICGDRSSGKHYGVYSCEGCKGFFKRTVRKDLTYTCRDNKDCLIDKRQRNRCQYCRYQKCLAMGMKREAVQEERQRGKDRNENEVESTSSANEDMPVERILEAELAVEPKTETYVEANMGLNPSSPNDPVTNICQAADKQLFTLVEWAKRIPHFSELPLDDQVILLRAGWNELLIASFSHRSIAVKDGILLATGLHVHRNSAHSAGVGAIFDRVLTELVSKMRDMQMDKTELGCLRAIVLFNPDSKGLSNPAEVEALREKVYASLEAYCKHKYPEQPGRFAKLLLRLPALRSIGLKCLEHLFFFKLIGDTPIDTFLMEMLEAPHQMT
Experiment: Co-transfection assay (LXRE luciferase reporter), LXRβ
Format: cell-based
Conditions: for EC50: CV-1 cells transfected with pCMX-hLXRβ and LXREx1-Tk-Luciferase, 20 hours incubation; for Emax: LXRβ co-transfection, relative to high control 1-(2,4-difluorobenzyl)-2-oxo-6-(4-phenoxyphenyl)-4-(trifluoromethyl)-1,2-dihydropyridine-3-carbonitrile, read-out: % Efficacy
Text: To measure the ability of compounds to activate or inhibit the transcriptional activity of LXR in a cell based assay, the co-transfection assay was used. It has been shown that LXR functions as a heterodimer with RXR. For the co-transfection assay, expression plasmids for LXRα and LXRβ are introduced separately via transient transfection into mammalian cells along with a luciferase reporter plasmid that contains one copy of a DNA sequence that is bound by LXR-RXR heterodimers (LXRE; Willy, P. et. al. 1995). LXRs heterodimerize with the endogenous RXR. Treatment of transfected cells with an LXR agonist increases the transcriptional activity of LXR, which is measured by an increase in luciferase activity.
CV-1 African Green Monkey Kidney Cells
Co-transfection expression plasmids, comprising full-length LXRα (pCMX-h LXRα[…] or LXRβ (pCMX-hLXRβ), reporter plasmid (LXREx1-Tk-Luciferase), and control (pCMX-Galactosidase expression vector) (Willey et al. Genes & Development 9 1033-1045 (1995)).
CV-1 cells were prepared 24 hours prior to the experiment by plating them into T-175 flasks or 500 cm^2 dishes in order to achieve 70-80% confluency on the day of the transfection. The number of cells to be transfected was determined by the number of plates to be screened. Each well of a 384 well plate requires 1.5×10^4 cells. DNA Transfection Reagent was prepared by mixing the required plasmid DNAs with a cationic lipid transfection reagent Transit 2020 (Mirus Bio) for CV1 by following the instructions provided with the reagents. Optimal DNA amounts were determined empirically per cell line and size of vessel to be transfected. For each T175 cm^2 flask a total of 59 ug for CV1 of DNA, 133 uL Transit2020 and 4.5 mL DMEM for CV1 was mixed and added. Cells were then incubated at least 5 hours at 37° C. to prepare screening cells.
Luciferase assay reagent (*Steady-Glo Luciferase Assay System by Promega, CAT#E2550) was prepared by combining before use:
Assay plates were prepared by dispensing 5 μL of compound per well of a 384 well plate to achieve final compound concentration of 10 μM and no more than 0.5% DMSO. Media was removed from the screening cells, the cells trypsinized, harvested cells by centrifugation, counted, and plated at a density of approximately 1.5×10^4 cells in the 384 well assay plate prepared above in a volume of about 95 uL. Assay plates containing both compounds and screening cells (100 μL in total volume) were incubated for 20 hours at 37° C.
After incubation with compounds, media was removed from the cells and luciferase assay reagent (50 μL/well) added. After ˜2 minutes at ambient temperature, the assay plates were read on a luminometer (PE Biosystems Northstar reader with on-board injectors, or Envision(Perkin Elmer) or equivalent).
The LXR/LXRE co-transfection assay can be used to establish the EC50/IC50 values for potency and percent activity or inhibition for efficacy. Efficacy defines the activity of a compound relative to a high control 1-(2,4-difluorobenzyl)-2-oxo-6-(4-phenoxyphenyl)-4-(trifluoromethyl)-1,2-dihydropyridine-3-carbonitrileor a low control (DMSO/vehicle). The dose response curves are generated from a 11 point curve with concentrations differing by ½ LOG units. Each point represents the average of 2 wells of data from duplicate 384 well plate.
The data from this assay is fitted to the following equation, from which the EC50 value may be solved: Y=Bottom+(Top−Bottom)/(1+10^((logEC50-X)*HillSlope)).
The EC50/IC50 is therefore defined as the concentration at which an agonist or antagonist elicits a response that is halfway between the Top (maximum) and Bottom (baseline) values. The EC50/IC50 values represented are the averages of at least 2 and normally 3 independent experiments. […]

| SMILES | EC50 [nM] | Emax [%] |
| --- | --- | --- |
| Cc1nc(-c2ccc(OC(F)(F)F)cc2)c(-c2cc(-c3cccc([S+](C)[O-])c3)ccc2-n2cc(C(F)(F)F)nc2C)o1 (stereo not shown) [Example 627, 2-methyl-5-(4-(2-methyl-4-(trifluoromethyl)-1H-imidazol-1-yl)-3′-(methylsulfinyl)-[1,1′-biphenyl]-3-yl)-4-(4-(trifluoromethoxy)phenyl)oxazole] | 269 | 93 |
| Cc1nc(-c2cc(-c3cccc(S(C)(=O)=O)c3)ccc2-n2cc(C(F)(F)F)nc2C)c(-c2ccc3c(c2)C(O)C(F)(F)O3)o1 (stereo not shown) [Example 368, 2,2-difluoro-5-(2-methyl-4-(4-(2-methyl-4-(trifluoromethyl)-1H-imidazol-1-yl)-3′-(methylsulfonyl)biphenyl-3-yl)oxazol-5-yl)-2,3-dihydrobenzofuran-3-ol] | 465 | 77 |
| Cc1nc(-c2ccc3c(c2)OC(F)(F)O3)c(-c2cc(-c3ccc(CO)c(S(C)(=O)=O)c3)ccc2-n2cc(C(F)(F)F)nc2C)o1 [Example 616, (3′-(4-(2,2-difluorobenzo[d][1,3]dioxol-5-yl)-2-methyloxazol-5-yl)-4′-(2-methyl-4-(trifluoromethyl)-1H-imidazol-1-yl)-3-(methylsulfonyl)-[1,1′-biphenyl]-4-yl)methanol] | 45 | 96 |
| Cc1nc(C(F)(F)F)c(Cl)n1-c1ccc(-c2cccc(S(C)(=O)=O)c2)cc1-n1nncc1-c1ccc(OC(F)(F)F)cc1 [Example 55, 1-{4-[5-chloro-2-methyl-4-(trifluoromethyl)-1H-imidazol-1-yl]-3′-(methylsulfonyl)biphenyl-3-yl}-5-{4-[(trifluoromethyl)oxy]phenyl}-1H-1,2,3-triazole] | 180 | 110 |
| COc1ncc(-c2oc(C)nc2-c2cc(-c3cccc(S(C)(=O)=O)c3)ccc2-n2cc(Cl)nc2C)cc1F [Example 464, 4-(4-(4-chloro-2-methyl-1H-imidazol-1-yl)-3′-(methylsulfonyl)biphenyl-3-yl)-5-(5-fluoro-6-methoxypyridin-3-yl)-2-methyloxazole] | 4680 | 42 |
| Cc1nc(C(F)(F)F)cn1-c1ccc(-c2cccc(S(C)(=O)=O)c2)cc1-c1nc(C(C)CO)oc1-c1ccc(OC(F)(F)F)cc1 (stereo not shown) [Example 565, 2-(4-(4-(2-methyl-4-(trifluoromethyl)-1H-imidazol-1-yl)-3′-(methylsulfonyl)-[1,1′-biphenyl]-3-yl)-5-(4-(trifluoromethoxy)phenyl)oxazol-2-yl)propan-1-ol] | 354 | 30 |
| Cc1nc(C(F)(F)F)cn1-c1ccc(-c2cc(F)c(CO)c(S(C)(=O)=O)c2)cc1-c1nc(C2CC2)cn1-c1ccc2c(c1)OC(F)(F)O2 [Example 639, (3′-(4-cyclopropyl-1-(2,2-difluorobenzo[d][1,3]dioxol-5-yl)-1H-imidazol-2-yl)-3-fluoro-4′-(2-methyl-4-(trifluoromethyl)-1H-imidazol-1-yl)-5-(methylsulfonyl)biphenyl-4-yl)methanol] | 129 | 81 |
| Cc1nc(-c2cc(-c3cccc(S(C)(=O)=O)c3)ccc2-n2cc(C(F)(F)F)nc2C)c(-c2ccc(OC(F)(F)C(F)(F)F)cc2)o1 [Example 572, 2-methyl-4-(4-(2-methyl-4-(trifluoromethyl)-1H-imidazol-1-yl)-3′-(methylsulfonyl)-[1,1′-biphenyl]-3-yl)-5-(4-(perfluoroethoxy)phenyl)oxazole] | 95 | 46 |
| Cc1nc(C(F)(F)C(C)C)cn1-c1ccc(-c2cccc(S(C)(=O)=O)c2)cc1-n1nncc1-c1ccc(OC(F)(F)F)cc1 [Example 164, 1-{4-[4-(1,1-difluoro-2-methylpropyl)-2-methyl-1H-imidazol-1-yl]-3′-(methylsulfonyl)biphenyl-3-yl}-5-{4-[(trifluoromethyl)oxy]phenyl}-1H-1,2,3-triazole] | 203 | 59 |
| Cc1nc(-c2cc(-c3cccc(S(C)(=O)=O)c3)ccc2-n2cc(C(F)(F)F)nc2C)c(-c2ccc(C(F)(F)F)cc2)o1 [Example 513, 2-methyl-4-(4-(2-methyl-4-(trifluoromethyl)-1H-imidazol-1-yl)-3′-(methylsulfonyl)biphenyl-3-yl)-5-(4-(trifluoromethyl)phenyl)oxazole] | 137 | 64 |
| CS(=O)(=O)c1cccc(-c2cc(F)c(-n3cnc(C(F)(F)F)c3)c(-n3nncc3-c3ccc(Cl)cc3Cl)c2)c1 [Example 191, 5-(2,4-dichlorophenyl)-1-{5-fluoro-3′-(methylsulfonyl)-4-[4-(trifluoromethyl)-1H-imidazol-1-yl]biphenyl-3-yl}-1H-1,2,3-triazole] | 452 | 102 |
| Cc1nc(C(F)(F)F)cn1-c1ccc(-c2ccc(CO)c(S(C)(=O)=O)c2)cc1-c1nc(C(C)C)oc1-c1ccc(OC(F)(F)F)cc1 [Example 521, (3′-(2-isopropyl-5-(4-(trifluoromethoxy)phenyl)oxazol-4-yl)-4′-(2-methyl-4-(trifluoromethyl)-1H-imidazol-1-yl)-3-(methylsulfonyl)-[1,1′-biphenyl]-4-yl)methanol] | 21 | 71 |
| Cc1nc(-c2ccc(OC(F)(F)F)cc2)c(-c2cc(-c3cccc(S(C)(=O)=O)c3)ccc2-n2cc(C(F)(F)F)nc2C)o1 [Example 604, 2-methyl-5-(4-(2-methyl-4-(trifluoromethyl)-1H-imidazol-1-yl)-3′-(methylsulfonyl)-[1,1′-biphenyl]-3-yl)-4-(4-(trifluoromethoxy)phenyl)oxazole] | 54 | 86 |
| Cc1nc(-c2cc(-c3cccc(C4(C(N)=O)CC4)c3)ccc2-n2cc(C(F)(F)F)nc2C)c(-c2ccc3c(c2)OC(F)(F)O3)o1 [Example 446, 1-(3′-(5-(2,2-difluorobenzo[d][1,3]dioxol-5-yl)-methyloxazol-4-yl)-4′-(2-methyl-4-(trifluoromethyl)-1H-imidazol-1-yl)biphenyl-3-yl)cyclopropanecarboxamide] | 836 | 51 |
